Active and inactive are the calls of the source.
How the values were obtained:
HeLa = assay: Cytotoxicity counterscreen assay for transcriptional activators of heat shock protein 70 (Hsp70). [Related pubchem assays: 1203, 1252 ]; assay type: functional; details: Homo sapiens;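 further: cells exposed to compound for 16 hours before readout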
Ion channel NompC = Ion channel NompC (Danio rerio, UniProt Q7T1G6); assay: Dose response cell-based high-throughput screening assay for agonists of the transient receptor potential channel N1 (TRPN1). [Related pubchem assays (depositor defined):AID1424, AID1448]; assay type: functional
[1] = microbe, parasite or virus in culture; assay type: functional; details: Mycobacterium tuberculosis
Mucolipin-3 = target: T1, Mucolipin-3 (Homo sapiens, UniProt Q8TDD5); assay: Fluorescence counterscreen assay for […] agonists: dose response cell-based high-throughput screening assay to identify agonists of the transient receptor potential channel ML3 (TRPML3). [Related pubchem assays: 1424, 1448 ]; assay type: functional
T1 sequence (Q8TDD5 whole entry): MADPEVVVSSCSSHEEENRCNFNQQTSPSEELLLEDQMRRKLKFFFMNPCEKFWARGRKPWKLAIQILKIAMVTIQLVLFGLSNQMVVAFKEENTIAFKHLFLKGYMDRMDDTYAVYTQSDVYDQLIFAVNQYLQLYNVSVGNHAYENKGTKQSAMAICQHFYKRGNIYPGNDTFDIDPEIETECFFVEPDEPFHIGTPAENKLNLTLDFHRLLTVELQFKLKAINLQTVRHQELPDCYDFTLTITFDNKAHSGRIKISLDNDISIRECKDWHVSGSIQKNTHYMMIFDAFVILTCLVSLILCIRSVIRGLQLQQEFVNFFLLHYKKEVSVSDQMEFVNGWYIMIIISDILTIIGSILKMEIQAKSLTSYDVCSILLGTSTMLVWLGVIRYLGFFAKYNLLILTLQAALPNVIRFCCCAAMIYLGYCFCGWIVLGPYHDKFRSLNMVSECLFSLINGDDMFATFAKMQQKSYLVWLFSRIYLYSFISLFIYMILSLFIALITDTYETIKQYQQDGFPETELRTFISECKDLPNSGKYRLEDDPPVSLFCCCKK

[2] = target: T2, Aryl hydrocarbon receptor (Homo sapiens, UniProt P35869); assay: Luminescence-based cell-based high throughput dose response assay for activators of the Aryl Hydrocarbon Receptor (AHR). [Related pubchem assays: 2796 (Primary screen (AHR activators in singlicate)), 2845 (Confirmation screen (AHR activators in triplicate)), 434939 (Counterscreen (PXR activators in triplicate)), 2804 (Summary (AHR activators))]; assay type: ADME
T2 sequence (P35869 whole entry): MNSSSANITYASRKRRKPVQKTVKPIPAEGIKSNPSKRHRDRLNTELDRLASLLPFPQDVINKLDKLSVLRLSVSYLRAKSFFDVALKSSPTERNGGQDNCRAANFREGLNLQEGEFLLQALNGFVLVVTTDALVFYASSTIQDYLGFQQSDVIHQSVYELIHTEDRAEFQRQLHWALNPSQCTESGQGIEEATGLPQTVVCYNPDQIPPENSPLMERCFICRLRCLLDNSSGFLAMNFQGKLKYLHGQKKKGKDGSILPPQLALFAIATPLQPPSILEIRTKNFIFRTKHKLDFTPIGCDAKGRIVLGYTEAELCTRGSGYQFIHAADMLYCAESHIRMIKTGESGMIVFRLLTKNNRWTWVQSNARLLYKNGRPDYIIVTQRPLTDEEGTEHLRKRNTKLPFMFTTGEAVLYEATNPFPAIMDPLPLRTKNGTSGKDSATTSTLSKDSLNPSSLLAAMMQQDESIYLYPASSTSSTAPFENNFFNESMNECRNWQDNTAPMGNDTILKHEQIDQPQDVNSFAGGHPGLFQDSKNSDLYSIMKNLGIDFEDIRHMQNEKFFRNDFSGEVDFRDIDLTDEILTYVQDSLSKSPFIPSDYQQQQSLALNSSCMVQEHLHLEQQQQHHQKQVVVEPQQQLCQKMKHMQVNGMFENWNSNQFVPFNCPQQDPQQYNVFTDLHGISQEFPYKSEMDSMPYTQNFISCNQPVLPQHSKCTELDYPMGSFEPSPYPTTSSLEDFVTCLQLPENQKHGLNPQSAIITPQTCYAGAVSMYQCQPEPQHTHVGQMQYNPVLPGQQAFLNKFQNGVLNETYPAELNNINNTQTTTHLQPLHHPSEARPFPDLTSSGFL

[3] = THP-1 cell cytotoxicity, dose response, cytotoxicity control for non-replicating M. tuberculosis project (AID 489025); assay type: functional
[4] = HepG2 cell cytotoxicity, dose response, cytotoxicity control for non-replicating M. tuberculosis project (AID 489018); assay type: functional; details: Mycobacterium tuberculosis
[5] = Vero E6 cell cytotoxicity, dose response, cytotoxicity control for non-replicating M. tuberculosis project, secondary assay (AID 492998); assay type: functional, VeroE6; details: Vero C1008
cells = assay type: functional
INS1 = assay: INS-1E survival protection against cytokine death – cell-based, luminescence, retest, dose response (AID 449756); assay type: functional; details: Rattus norvegicus;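 further: cell death triggered by IL-1 beta plus TNF-alpha plus IFN-gamma mixture; protective hits raise ATP signal compared with cytokine alone wells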
[6] = loss of viability in HepG2 cells – cell-based, CellTiter-Glo, cherry-picked, cytotoxicity control for Shn3 inhibitor project, dose response (AID 624134); assay type: functional
[7] = non-specific 3'UTR reporter inhibition in Clone20-Shn3RL – cell-based, Renilla luciferase, cherry-picked, counter-screen for Shn3 inhibitor project, dose response (AID 624133); assay type: functional
HEK293 [8] = assay: cells; details: Homo sapiens
HEK293 [9] = assay: cells; details: Homo sapiens; remark: listed apart in the source
[10] = target: Beta-2 adrenergic receptor (Homo sapiens, UniProt P07550); assay: ADRB2 activation measured by internalization – cell-based, FAP fluorogen, flow cytometry, cherry pick 1, dose response (AID 588763); assay type: functional
Beta-galactosidase = Beta-galactosidase (Escherichia coli, UniProt Q8VNN2); assay: PubChem AID 485352; assay type: functional
[11] = target: T3, Type-1 angiotensin II receptor (Homo sapiens, UniProt P30556); assay: antagonism of angiotensin II type 1 receptor – cell-based, uHTS hits, selectivity assay for APJ receptor antagonist project, dose response (AID 463214); assay type: functional;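 further: antagonist potency against angiotensin II stimulated AT1 response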
T3 sequence (P30556 whole entry): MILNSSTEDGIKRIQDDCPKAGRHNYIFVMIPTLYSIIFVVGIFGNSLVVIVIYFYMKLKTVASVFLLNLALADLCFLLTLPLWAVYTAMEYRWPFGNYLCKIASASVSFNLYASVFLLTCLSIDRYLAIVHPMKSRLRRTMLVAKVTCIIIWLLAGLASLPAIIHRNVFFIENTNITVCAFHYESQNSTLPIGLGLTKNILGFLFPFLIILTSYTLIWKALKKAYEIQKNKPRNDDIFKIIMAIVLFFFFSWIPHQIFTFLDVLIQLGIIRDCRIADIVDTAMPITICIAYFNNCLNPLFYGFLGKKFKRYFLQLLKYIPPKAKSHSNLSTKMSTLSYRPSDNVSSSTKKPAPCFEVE

Exodeoxyribonuclease V = Exodeoxyribonuclease V (Escherichia coli (strain K12), UniProt P04993+P07648+P08394); assay: RecBCD inhibition via phage-restricted bacterial growth – absorbance, V66 E. coli, mutant T4 phage, counter-screen for AddAB inhibitor project, dose response (AID 492957); assay type: functional, cell-based, Escherichia coli str. K-12 substr. MG1655
[12] = Counterscreen for AddAB inhibitors: absorbance-based bacterial cell-based high throughput dose response assay for inhibitors of bacterial viability. [Related pubchem assays (depositor defined):AID435030, AID449728, AID449731, AID488942, AID488955, AID488956]; assay type: functional
Hexokinase-1 = target: T4, Hexokinase-1 (Homo sapiens, UniProt P19367); assay: SAR analysis of small molecule inhibitors of hexokinase domain containing I (HKDC1) in the hexokinase 1 selectivity assay. [Related pubchem assays (depositor defined):AID493160, AID493190]; assay type: functional
T4 sequence (P19367 whole entry): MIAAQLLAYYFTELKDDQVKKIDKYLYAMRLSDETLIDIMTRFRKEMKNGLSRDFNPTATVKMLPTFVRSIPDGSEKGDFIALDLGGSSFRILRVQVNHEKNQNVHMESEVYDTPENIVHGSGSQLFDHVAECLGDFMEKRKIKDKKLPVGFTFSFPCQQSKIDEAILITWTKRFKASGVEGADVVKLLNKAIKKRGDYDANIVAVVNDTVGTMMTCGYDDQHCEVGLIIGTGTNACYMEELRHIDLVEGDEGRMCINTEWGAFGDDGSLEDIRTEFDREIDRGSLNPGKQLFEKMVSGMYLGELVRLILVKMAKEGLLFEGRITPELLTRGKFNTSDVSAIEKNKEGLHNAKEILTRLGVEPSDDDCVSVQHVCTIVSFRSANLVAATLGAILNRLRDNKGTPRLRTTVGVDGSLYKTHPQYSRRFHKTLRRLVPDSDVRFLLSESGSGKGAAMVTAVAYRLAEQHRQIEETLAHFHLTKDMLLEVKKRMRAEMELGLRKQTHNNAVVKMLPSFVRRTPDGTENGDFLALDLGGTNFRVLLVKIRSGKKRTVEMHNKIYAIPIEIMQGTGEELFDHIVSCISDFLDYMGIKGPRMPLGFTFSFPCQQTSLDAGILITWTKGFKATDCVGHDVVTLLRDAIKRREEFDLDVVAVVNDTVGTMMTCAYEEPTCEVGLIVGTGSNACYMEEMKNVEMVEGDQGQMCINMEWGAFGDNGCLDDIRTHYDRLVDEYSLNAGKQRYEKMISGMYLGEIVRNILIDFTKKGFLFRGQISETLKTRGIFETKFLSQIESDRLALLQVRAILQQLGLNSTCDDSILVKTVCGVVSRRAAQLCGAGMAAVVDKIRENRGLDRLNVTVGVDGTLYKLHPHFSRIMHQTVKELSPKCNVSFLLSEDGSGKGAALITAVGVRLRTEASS

Hexokinase HKDC1 = target: T5, Hexokinase HKDC1 (Homo sapiens, UniProt Q2TB90); assay: SAR analysis of small molecule inhibitors of hexokinase domain containing I (HKDC1). [Related pubchem assays (depositor defined):AID493160, AID493190]; assay type: functional
T5 sequence (Q2TB90 whole entry): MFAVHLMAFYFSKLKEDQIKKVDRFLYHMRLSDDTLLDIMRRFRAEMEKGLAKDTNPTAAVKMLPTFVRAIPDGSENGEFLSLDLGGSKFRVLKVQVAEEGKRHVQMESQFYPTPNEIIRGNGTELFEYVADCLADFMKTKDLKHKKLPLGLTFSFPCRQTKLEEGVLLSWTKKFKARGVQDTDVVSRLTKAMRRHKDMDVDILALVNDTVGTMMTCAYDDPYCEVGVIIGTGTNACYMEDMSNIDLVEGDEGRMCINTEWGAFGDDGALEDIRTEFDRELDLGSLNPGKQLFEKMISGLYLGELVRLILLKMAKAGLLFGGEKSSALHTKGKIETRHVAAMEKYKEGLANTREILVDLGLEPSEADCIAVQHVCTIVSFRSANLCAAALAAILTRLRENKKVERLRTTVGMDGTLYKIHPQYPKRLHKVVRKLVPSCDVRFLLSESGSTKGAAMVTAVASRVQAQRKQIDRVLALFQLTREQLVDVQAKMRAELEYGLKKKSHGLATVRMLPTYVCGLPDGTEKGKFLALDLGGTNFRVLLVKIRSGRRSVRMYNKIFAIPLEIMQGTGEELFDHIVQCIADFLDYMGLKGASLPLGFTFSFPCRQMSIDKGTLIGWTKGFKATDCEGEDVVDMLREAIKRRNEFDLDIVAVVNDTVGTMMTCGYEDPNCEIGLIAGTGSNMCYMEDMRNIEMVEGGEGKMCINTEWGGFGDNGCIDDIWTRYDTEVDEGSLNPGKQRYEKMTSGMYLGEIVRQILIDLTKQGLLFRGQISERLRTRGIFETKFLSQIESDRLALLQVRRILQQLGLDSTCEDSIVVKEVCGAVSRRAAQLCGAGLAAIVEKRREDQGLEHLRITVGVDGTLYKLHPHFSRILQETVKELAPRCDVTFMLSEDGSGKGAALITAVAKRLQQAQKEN

Beta-2 adrenergic receptor, sequence (P07550 whole entry): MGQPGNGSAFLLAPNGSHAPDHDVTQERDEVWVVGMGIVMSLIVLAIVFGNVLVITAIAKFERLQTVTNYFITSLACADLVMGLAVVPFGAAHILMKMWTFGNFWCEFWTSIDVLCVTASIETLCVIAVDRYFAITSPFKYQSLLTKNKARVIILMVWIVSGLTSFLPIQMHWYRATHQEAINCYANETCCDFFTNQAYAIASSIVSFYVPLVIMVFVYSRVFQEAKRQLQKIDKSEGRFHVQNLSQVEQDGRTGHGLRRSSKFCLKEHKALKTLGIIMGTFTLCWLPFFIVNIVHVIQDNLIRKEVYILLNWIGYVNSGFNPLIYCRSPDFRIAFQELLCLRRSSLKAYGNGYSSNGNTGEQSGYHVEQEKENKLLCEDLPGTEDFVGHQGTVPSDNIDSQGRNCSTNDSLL
Exodeoxyribonuclease V, sequence (P04993 whole entry): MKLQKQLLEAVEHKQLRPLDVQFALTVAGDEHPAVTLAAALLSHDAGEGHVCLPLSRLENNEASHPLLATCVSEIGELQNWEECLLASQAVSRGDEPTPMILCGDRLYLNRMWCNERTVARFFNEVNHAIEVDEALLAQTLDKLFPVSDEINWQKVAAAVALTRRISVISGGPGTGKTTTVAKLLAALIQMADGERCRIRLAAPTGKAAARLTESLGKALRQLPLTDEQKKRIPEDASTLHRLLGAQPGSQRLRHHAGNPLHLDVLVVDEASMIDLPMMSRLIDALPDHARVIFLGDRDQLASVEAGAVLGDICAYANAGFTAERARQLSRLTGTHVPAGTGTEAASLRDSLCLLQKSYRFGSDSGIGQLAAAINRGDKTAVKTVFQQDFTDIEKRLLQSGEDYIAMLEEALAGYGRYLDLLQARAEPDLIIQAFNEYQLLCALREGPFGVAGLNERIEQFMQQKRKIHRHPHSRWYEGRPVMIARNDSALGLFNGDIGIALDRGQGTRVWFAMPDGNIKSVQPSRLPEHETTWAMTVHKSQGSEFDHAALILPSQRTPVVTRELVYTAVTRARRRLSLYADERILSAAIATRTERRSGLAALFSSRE
Exodeoxyribonuclease V, sequence (P07648 whole entry): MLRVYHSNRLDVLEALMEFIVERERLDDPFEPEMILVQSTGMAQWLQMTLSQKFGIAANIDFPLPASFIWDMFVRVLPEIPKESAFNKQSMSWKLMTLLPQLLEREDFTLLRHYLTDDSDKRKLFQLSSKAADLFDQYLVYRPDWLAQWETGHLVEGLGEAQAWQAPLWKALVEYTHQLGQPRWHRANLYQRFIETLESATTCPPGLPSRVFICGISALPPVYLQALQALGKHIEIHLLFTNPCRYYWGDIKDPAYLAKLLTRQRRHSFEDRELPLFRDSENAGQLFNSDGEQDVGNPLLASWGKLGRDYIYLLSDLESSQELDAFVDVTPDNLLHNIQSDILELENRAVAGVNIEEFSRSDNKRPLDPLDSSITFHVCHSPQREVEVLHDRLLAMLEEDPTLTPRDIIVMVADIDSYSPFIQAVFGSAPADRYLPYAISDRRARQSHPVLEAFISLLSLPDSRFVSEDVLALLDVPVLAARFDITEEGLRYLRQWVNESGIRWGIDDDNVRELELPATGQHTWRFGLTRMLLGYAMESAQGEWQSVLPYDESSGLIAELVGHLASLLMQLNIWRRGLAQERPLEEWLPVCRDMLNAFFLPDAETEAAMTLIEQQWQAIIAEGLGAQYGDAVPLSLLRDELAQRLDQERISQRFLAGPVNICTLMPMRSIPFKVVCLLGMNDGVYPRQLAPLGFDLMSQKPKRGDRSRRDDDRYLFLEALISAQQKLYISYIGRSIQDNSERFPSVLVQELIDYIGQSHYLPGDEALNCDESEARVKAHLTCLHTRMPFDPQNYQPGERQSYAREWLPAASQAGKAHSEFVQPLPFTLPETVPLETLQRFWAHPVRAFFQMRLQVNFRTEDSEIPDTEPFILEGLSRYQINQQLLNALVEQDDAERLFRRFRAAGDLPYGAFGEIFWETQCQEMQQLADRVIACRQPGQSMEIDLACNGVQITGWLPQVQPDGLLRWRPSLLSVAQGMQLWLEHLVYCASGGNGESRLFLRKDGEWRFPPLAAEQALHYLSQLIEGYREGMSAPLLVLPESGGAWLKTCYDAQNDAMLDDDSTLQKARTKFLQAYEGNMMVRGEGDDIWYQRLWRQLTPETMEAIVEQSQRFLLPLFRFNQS
Exodeoxyribonuclease V, sequence (P08394 whole entry): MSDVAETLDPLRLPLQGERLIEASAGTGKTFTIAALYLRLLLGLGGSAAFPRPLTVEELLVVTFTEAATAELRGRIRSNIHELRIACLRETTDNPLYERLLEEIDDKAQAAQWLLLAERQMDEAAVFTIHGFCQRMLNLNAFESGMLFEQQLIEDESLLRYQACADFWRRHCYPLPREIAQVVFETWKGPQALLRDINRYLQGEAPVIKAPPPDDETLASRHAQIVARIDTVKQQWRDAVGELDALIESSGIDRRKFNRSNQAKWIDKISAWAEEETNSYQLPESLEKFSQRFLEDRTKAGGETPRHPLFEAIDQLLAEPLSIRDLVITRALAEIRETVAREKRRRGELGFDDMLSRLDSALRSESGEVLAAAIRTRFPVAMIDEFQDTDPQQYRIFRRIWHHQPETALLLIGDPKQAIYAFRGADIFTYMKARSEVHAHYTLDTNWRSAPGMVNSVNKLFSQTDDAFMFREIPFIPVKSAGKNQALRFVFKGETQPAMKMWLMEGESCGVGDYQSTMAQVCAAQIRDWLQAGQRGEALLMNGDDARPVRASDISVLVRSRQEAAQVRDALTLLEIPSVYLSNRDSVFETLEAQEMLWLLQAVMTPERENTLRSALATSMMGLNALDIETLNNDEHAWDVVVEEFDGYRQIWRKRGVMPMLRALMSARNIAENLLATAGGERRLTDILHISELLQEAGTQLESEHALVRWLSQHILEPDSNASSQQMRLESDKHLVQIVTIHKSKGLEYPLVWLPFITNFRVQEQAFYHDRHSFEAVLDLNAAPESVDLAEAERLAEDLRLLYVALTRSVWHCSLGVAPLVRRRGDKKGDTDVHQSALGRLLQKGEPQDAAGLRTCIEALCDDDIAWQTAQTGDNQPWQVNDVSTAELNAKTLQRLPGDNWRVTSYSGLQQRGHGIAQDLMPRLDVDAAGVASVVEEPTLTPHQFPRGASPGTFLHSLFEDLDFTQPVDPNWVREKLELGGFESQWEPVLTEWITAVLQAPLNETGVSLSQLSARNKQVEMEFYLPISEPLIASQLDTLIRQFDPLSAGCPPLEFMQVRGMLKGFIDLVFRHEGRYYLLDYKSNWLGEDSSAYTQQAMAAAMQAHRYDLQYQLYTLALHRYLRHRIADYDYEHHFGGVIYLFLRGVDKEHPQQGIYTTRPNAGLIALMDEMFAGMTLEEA
Ion channel NompC, sequence (Q7T1G6 whole entry): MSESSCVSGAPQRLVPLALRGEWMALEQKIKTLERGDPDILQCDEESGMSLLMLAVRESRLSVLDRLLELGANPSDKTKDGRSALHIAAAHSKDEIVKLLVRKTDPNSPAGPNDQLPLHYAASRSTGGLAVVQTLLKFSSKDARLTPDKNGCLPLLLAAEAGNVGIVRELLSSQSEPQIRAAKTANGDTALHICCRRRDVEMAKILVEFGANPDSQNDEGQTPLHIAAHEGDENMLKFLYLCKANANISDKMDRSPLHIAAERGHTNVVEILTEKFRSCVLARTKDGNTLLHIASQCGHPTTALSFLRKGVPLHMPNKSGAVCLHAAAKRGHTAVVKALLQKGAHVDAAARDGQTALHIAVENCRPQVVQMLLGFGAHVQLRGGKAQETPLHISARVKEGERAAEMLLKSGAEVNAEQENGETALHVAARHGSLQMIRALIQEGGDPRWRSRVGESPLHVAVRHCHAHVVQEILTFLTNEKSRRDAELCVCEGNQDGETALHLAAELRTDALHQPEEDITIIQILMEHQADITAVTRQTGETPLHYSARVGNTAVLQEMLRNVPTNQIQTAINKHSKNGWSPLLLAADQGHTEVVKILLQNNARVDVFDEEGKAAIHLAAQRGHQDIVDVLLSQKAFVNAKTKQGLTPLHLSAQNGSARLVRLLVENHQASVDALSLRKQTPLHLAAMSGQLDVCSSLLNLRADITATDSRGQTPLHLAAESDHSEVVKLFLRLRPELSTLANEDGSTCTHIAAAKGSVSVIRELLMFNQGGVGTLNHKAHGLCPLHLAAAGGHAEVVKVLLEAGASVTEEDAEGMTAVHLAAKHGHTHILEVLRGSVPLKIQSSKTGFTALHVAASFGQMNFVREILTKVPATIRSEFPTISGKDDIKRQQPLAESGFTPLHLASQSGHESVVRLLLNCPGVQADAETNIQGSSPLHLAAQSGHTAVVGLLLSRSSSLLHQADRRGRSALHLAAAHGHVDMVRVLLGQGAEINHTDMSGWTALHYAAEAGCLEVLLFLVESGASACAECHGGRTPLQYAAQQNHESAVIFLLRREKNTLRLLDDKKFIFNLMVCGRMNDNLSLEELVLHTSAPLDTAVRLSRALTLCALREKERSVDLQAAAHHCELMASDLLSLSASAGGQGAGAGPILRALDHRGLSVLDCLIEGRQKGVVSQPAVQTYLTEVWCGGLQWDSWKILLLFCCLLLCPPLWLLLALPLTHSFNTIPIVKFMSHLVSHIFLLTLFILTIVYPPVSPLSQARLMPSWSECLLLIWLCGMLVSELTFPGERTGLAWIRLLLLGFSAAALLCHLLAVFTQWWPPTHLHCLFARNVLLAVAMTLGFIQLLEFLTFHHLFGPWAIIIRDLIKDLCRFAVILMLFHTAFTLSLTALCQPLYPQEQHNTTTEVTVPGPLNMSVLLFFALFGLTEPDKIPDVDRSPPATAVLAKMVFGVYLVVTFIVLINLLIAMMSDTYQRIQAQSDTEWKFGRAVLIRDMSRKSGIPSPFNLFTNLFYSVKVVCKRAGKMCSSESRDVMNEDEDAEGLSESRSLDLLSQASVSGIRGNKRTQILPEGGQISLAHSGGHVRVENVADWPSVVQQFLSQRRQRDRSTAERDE

In the case of CC(=O)Nc1sc2c(c1-c1nc3ccccc3s1)CCN(C(C)C)C2, the CC50 (HeLa) is reported as 9.92 µM (active), the EC50 (Ion channel NompC) is reported as 25.1 µM (inactive) and the CC50 [1] is reported as 2.94 µM (active). For the same compound, the EC50 (Mucolipin-3) was > 29.9 µM (not active), the EC50 [2] was > 1.13 µM (active) and the CC50 [3] was 3.78 µM (active). For the same compound, the CC50 [4] was 7.58 µM (active), the CC50 [5] was 3.05 µM (active) and the IC50 (cells) was 5.98 µM (active). The AC50 (INS1) was 1.77 µM (active), the AC50 [6] was 4.53 µM (active) and the AC50 [7] was 20.1 µM (active). For the same compound, the EC50 (HEK293 [8]) was > 2.21 µM (active) and the EC50 (HEK293 [9]) was > 59.6 µM (inactive).
With CCSc1nc2ccccc2n1C(=O)c1ccc(S(=O)(=O)N2CCCCCC2)cc1 the EC50 [10] was 12.5 µM (inactive).
For O=C(Cc1ccccc1)NCC(=O)OCC(=O)c1cccc([N+](=O)[O-])c1, the EC50 (Beta-galactosidase) was > 40 µM (inactive) and the IC50 [11] was 23.2 µM (not active).
With CCOC(=O)c1cn(C2CC2)c2c(F)c(NCCCN(C)C)c(F)cc2c1=O the IC50 (Exodeoxyribonuclease V) was > 119 µM (inactive), the IC50 [12] was 75.9 µM (inactive) and the EC50 [10] was 0.353 µM (active).
In the case of Cc1ccoc1C(=O)Nc1cccc(C(=O)Nc2cccc(C(F)(F)F)c2)c1, the IC50 (Hexokinase-1) is reported as > 80 µM (inactive) and the IC50 (Hexokinase HKDC1) is reported as > 80 µM (inactive).
In the case of COc1ccc(NC(=O)c2ccc(NC(=O)c3scnc3C)cc2)cc1, the IC50 (Hexokinase-1) is reported as > 80 µM (inactive) and the IC50 (Hexokinase HKDC1) is reported as > 80 µM (inactive).

From ChEMBL document CHEMBL1201862, “PubChem BioAssay data set” (2004)
